This note sets out measurements from patent US20230165251A1, “SUBSTITUTED TOLYL FUNGICIDES AND THEIR MIXTURES” (FMC Corporation, priority 2020, published 2023).

One experiment relates to Alternaria solani. The experiment can be described thus: Test F: preventive spray on tomato seedlings, tomato early blight. Type of experiment: in vivo. The text has this: General protocol for preparing test suspensions for Tests A-F: the test compounds were first dissolved in acetone in an amount equal to 3% of the final volume and then suspended at the desired concentration (in ppm) in acetone and purified water (50/50 mix by volume) containing 250 ppm of the surfactant PEG400 (polyhydric alcohol esters). The resulting test suspensions were then used in Tests A-F.
The test suspension was sprayed to the point of run-off on tomato seedlings. The following day the seedlings were inoculated with a spore suspension of Alternaria solani (the causal agent of tomato early blight) and incubated in a saturated atmosphere at 27° C. for 48 h, and then moved to a growth chamber at 20° C. for 3 days, after which time visual disease ratings were made.
A rating of 100 indicates 100% disease control and a rating of 0 indicates no disease control (relative to the controls). A dash (-) indicates the compound was not tested.

The next experiment has as its system Phakopsora pachyrhizi. The experiment can be described thus: Test G: Compound 41 or 63 alone and in mixtures on soybean seedlings, Asian soybean rust, Colby synergy. Type of experiment: in vivo. An excerpt:
The general protocol for preparing test compositions for TEST G was as follows: Compound 41, Compound 63, N-(2,2,2-trifluoroethyl)-2-[[4-[5-(trifluoromethyl)-1,2,4-oxadiazol-3-yl]phenyl]methyl]-4-oxazolecarboxamide (b54.11a), ethyl 1-[[4-[[(1Z)-2-ethoxy-3,3,3-trifluoro-1-propen-1-yl]oxy]phenyl]methyl]-1H-pyrazole-4-carboxylate (b54.11c), ethyl 1-[[4-[[2-(trifluoromethyl)-1,3-dioxolan-2-yl]methoxy]phenyl]methyl]-1H-pyrazole-4-carboxylate (b54.11d), azoxystrobin, benzovindiflupyr, bixafen, chlorothalonil, cyproconazole, epoxiconazole, fenpropidin, fenpropimorph, fluindapyr, flutriafol, fluxapyroxad, inpyrfluxam, picoxystrobin, prothioconazole, pydiflumetofen, tebuconazole and trifloxystrobin were obtained as unformulated, technical-grade materials. Copper hydroxide and mancozeb was obtained as a formulated product marketed under the trademarks KOCIDE 3000 and MANZATE, respectively. Unformulated materials were first dissolved in acetone and then suspended at the desired concentration (in ppm) in acetone and purified water (50/50 mix by volume) containing 250 ppm of the surfactant Trem® 014 (polyhydric alcohol esters). Formulated materials were dispersed in sufficient water to give the desired concentration, and neither organic solvent nor surfactant was added to the suspension. The resulting test mixtures were then used in TEST G. The tests were run on four individual plants and the results reported as the mean average of the four plants.
The presence of a synergistic effect between two active ingredients was established with the aid of the Colby equation (see Colby, S. R. “Calculating Synergistic and Antagonistic Responses of Herbicide Combinations”, Weeds, (1967), 15, 20-22):
Using the method of Colby, the presence of a synergistic interaction between two active ingredients is established by first calculating the predicted activity, p, of the mixture based on activities of the two components applied alone. If p is lower than the experimentally established effect, synergism has occurred. In the equation above, A is the fungicidal activity in percentage control of one component applied alone at rate x. The B term is the fungicidal activity in percentage control of the second component applied at rate y. The equation estimates p, the expected fungicidal activity of the mixture of A at rate x with B at rate y if their effects are strictly additive and no interaction has occurred.
The test mixture was sprayed to the point of run-off on soybean seedlings. The following day the seedlings were inoculated with a spore suspension of Phakopsora pachyrhizi (the causal agent of Asian soybean rust) and incubated in a saturated atmosphere at 22° C. for 24 h and then moved to a growth chamber at 22° C. for 8 days, after which time visual disease ratings were made.
Results for TEST G are given below in Tables B-1 through J-1 for Compound 41, and Tables B-2 through J-2 for Compound 63. Each table corresponds to a set of evaluations performed together at the same time. In each table, a rating of 100 indicates 100% disease control and a rating of 0 indicates no disease control (relative to the controls). Columns labeled “Obsd” indicate the average of results observed from test run on four individual plants. Columns labeled “Exp” indicate the expected value for each treatment mixture using the Colby equation.

As to `COC(=O)NCc1cc(-c2ccn(-c3c(F)cc(Cl)cc3F)n2)ccc1C` [Compound 6, methyl N-[[5-[1-(4-chloro-2,6-difluorophenyl)-1H-pyrazol-3-yl]-2-methylphenyl]methyl]carbamate], in the experiment with Alternaria solani (Rate 10 ppm), the “Test F disease control rating” value was 40%.

As to `COC(=O)NCc1cc(-c2ccn(-c3c(F)cc(OC(F)F)cc3F)n2)ccc1C` [Compound 15, methyl N-[[5-[1-[4-(difluoromethoxy)-2,6-difluorophenyl]-1H-pyrazol-3-yl]-2-methylphenyl]methyl]carbamate], the “Test F disease control rating” value with Alternaria solani (Rate 10 ppm) is recorded as 0%.

Consider `COC(=O)NCc1cc(-c2ccn(-c3c(F)cc(C(F)(F)F)cc3F)n2)ccc1C` [Compound 64, methyl N-[[5-[1-[2,6-difluoro-4-(trifluoromethyl)phenyl]-1H-pyrazol-3-yl]-2-methylphenyl]methyl]carbamate], for which the “Test F disease control rating” value in the experiment with Alternaria solani (Rate 10 ppm) stood at 0%.

In the case of `COC(=O)NCc1cc(-c2ncn(-c3c(F)cc([N+](=O)[O-])cc3F)n2)ccc1C` [Compound 107], the “Test F disease control rating” value in the experiment with Alternaria solani (Rate 250 ppm) came out at 0%.

With `COC(=O)NCc1cc(-c2cnn(-c3c(F)cc([N+](=O)[O-])cc3F)n2)ccc1C` [Compound 118, methyl N-[[5-[2-(2,6-difluoro-4-nitrophenyl)-2H-1,2,3-triazol-4-yl]-2-methylphenyl]methyl]carbamate], the “Test F disease control rating” value in the experiment on Alternaria solani (Rate 250 ppm) came to 0%.

Take `CC1CC(C)(C)c2c(F)ccc(NC(=O)c3cn(C)nc3C(F)F)c21` (stereo not drawn) [Fluindapyr, fluindapyr]: the “Test G Obsd” value in the experiment with Phakopsora pachyrhizi (Table C-1, fluindapyr 8.820 ppm alone) is reported as 61%; in the experiment on Phakopsora pachyrhizi (Table C-1, fluindapyr 15.230 ppm alone) it was 79%; with Phakopsora pachyrhizi (Table C-2, fluindapyr 8.820 ppm alone) it was 61%; in the experiment with Phakopsora pachyrhizi (Table C-2, fluindapyr 15.230 ppm alone), 79%.

In the case of `OC(Cn1cncn1)(c1ccc(F)cc1)c1ccccc1F` (stereo not drawn) [Flutriafol, flutriafol], in the experiment on Phakopsora pachyrhizi (Phakopsora pachyrhizi, flutriafol alone 544.265 ppm, read-out: Test G Obsd), the pest or weed control at 544.265 ppm came to 13%. Further, in the experiment on Phakopsora pachyrhizi (Phakopsora pachyrhizi, flutriafol alone 1124.021 ppm, read-out: Test G Obsd), the pest or weed control at 1124.02 ppm was 52%.

Regarding `Cn1cc(C(=O)Nc2ccccc2-c2cc(F)c(F)c(F)c2)c(C(F)F)n1` [Fluxapyroxad, fluxapyroxad], the “Test G Obsd” value was found to be 19% in the experiment with Phakopsora pachyrhizi (Table C-1, fluxapyroxad 2.757 ppm alone); 52% with Phakopsora pachyrhizi (Table C-1, fluxapyroxad 4.748 ppm alone); 19% in the experiment on Phakopsora pachyrhizi (Table C-2, fluxapyroxad 2.757 ppm alone); 52% in the experiment with Phakopsora pachyrhizi (Table C-2, fluxapyroxad 4.748 ppm alone).

For `C[C@@H]1CC(C)(C)c2cccc(NC(=O)c3cn(C)nc3C(F)F)c21` [Inpyrfluxam, inpyrfluxam], the “Test G Obsd” value in the experiment on Phakopsora pachyrhizi (inpyrfluxam alone 0.448 ppm) is 56%; in the experiment on Phakopsora pachyrhizi (inpyrfluxam alone 1.059 ppm), 79%.

`CO/C=C(/C(=O)OC)c1ccccc1COc1cccc(C(F)(F)F)n1` [Picoxystrobin, picoxystrobin]: the entries for the “Test G Obsd” value in the experiment with Phakopsora pachyrhizi (picoxystrobin alone 20.596 ppm), in the experiment on Phakopsora pachyrhizi (picoxystrobin alone 33.856 ppm) and in the experiment on Phakopsora pachyrhizi (picoxystrobin alone 33.865 ppm) were 63%, 79% and 79%, respectively.

In the case of `OC(Cc1ccccc1Cl)(Cn1nc[nH]c1=S)C1(Cl)CC1` (stereo not drawn) [Prothioconazole, prothioconazole], the pest or weed control at 10.165 ppm in the experiment on Phakopsora pachyrhizi (Phakopsora pachyrhizi, prothioconazole alone 10.165 ppm, read-out: Test G Obsd) is 7%. In addition, the pest or weed control at 16.339 ppm in the experiment on Phakopsora pachyrhizi (Phakopsora pachyrhizi, prothioconazole alone 16.339 ppm, read-out: Test G Obsd) is 65%.

For `CON(C(=O)c1cn(C)nc1C(F)F)C(C)Cc1c(Cl)cc(Cl)cc1Cl` (stereo not drawn) [Pydiflumetofen, pydiflumetofen], the “Test G Obsd” value with Phakopsora pachyrhizi (pydiflumetofen alone 41.364 ppm) came to 49%; in the experiment with Phakopsora pachyrhizi (pydiflumetofen alone 70.950 ppm), 0%; with Phakopsora pachyrhizi (pydiflumetofen alone 128.793 ppm), 36%; in the experiment on Phakopsora pachyrhizi (pydiflumetofen alone 135.850 ppm), 73%.

Turning to `CC(C)(C)C(O)(CCc1ccc(Cl)cc1)Cn1cncn1` (stereo not drawn) [Tebuconazole, tebuconazole], the pest or weed control at 486.921 ppm in the experiment on Phakopsora pachyrhizi (Phakopsora pachyrhizi, tebuconazole alone 486.921 ppm, read-out: Test G Obsd) worked out at 30%. The pest or weed control at 841.166 ppm in the experiment on Phakopsora pachyrhizi (Phakopsora pachyrhizi, tebuconazole alone 841.166 ppm, read-out: Test G Obsd) stood at 55%.

As to `CON=C(C(=O)OC)c1ccccc1CON=C(C)c1cccc(C(F)(F)F)c1` [Trifloxystrobin, trifloxystrobin], the pest or weed control at 20.511 ppm in the experiment with Phakopsora pachyrhizi (Phakopsora pachyrhizi, trifloxystrobin alone 20.511 ppm, read-out: Test G Obsd) came out at 46%. In addition, the pest or weed control at 35.31 ppm in the experiment with Phakopsora pachyrhizi (Phakopsora pachyrhizi, trifloxystrobin alone 35.310 ppm, read-out: Test G Obsd) was 76%.
